The target of the assay is T1, CD73 (Homo sapiens, UniProt P21589).
T1 sequence (P21589 27-549): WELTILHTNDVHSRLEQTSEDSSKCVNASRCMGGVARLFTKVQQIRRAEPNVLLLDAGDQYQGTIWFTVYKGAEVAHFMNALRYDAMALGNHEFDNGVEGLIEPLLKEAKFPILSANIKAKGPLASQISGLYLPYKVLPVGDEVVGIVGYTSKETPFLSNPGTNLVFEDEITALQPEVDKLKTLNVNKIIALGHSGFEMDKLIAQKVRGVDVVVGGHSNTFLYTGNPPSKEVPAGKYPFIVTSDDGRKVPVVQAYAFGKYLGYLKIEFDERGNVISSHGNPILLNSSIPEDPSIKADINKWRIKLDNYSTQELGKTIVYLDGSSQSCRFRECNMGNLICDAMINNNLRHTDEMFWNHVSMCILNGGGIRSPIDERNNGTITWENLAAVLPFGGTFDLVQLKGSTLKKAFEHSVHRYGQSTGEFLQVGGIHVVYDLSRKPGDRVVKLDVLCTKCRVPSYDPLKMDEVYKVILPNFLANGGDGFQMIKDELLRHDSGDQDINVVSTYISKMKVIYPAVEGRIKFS
Kind of assay: Biochemical assay of CD73 inhibition (Malachite Green). Particulars: CD73 0.3208 nM, AMP 15 μM, Tris-HCl pH 7.4, Malachite Green absorbance readout; read-out: CD73_Biochem. A digest of the protocol:
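CD73 (0.3208 nM) preincubated with compound 15 min at RT in 25 mM Tris-HCl pH 7.4, 5 mM MgCl2, 0.01% Brij-35, 0.01% BSA, then AMP (15 μM) added for 10 min at RT. Released phosphate detected by Malachite Green absorbance. IC50 from 10-point ½-log titrations starting at 100 μM, in duplicate.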

Experimental findings from patent US11130778B2, “CD73 inhibitors” (ORIC Pharmaceuticals, Inc., priority 2019, dated 2021) are described below.

Some results are limits rather than exact numbers.

Consider `O=P(O)(O)[C@@](CO)(COCc1nn[nH]n1)OC[C@H]1O[C@@H](n2ncc3c(NCC4CC4)nc(Cl)nc32)[C@H](O)[C@@H]1O` [Example 54, ((S)-1-((2H-tetrazol-5-yl)methoxy)-2-(((2R,3S,4R,5R)-5-(6-chloro-4-((cyclopropylmethyl)amino)-1H-pyrazolo[3,4-d]pyrimidin-1-yl)-3,4-dihydroxytetrahydrofuran-2-yl)methoxy)-3-hydroxypropan-2-yl)phosphonic acid], for which the IC50 was at most 10 nM.

Take `O=P(O)(O)C(CO)(Cc1c[nH]nn1)OC[C@H]1O[C@@H](n2ncc3c(NC4CCCC4)nc(Cl)nc32)[C@H](O)[C@@H]1O` (stereo partly drawn) [Example 13, (2-(((2R,3S,4R,5R)-5-(6-chloro-4-(cyclopentylamino)-1H-pyrazolo[3,4-d]pyrimidin-1-yl)-3,4-dihydroxytetrahydrofuran-2-yl)methoxy)-1-hydroxy-3-(1H-1,2,3-triazol-4-yl)propan-2-yl)phosphonic acid]: the IC50 lay in the range of 10 to 100 nM.
